The record followed here is patent publication US5932580A, “PDGF receptor kinase inhibitory compounds their preparation and compositions” (priority 1997, dated 1999).

pIC50: −log10 of the molar value. Read-outs that look alike come from different tables or passages of the source.

Broadly, the pIC50 is the negative decadic logarithm of the IC50, by convention in mol/L.

One assay deals with T1, PDGF β-receptor (Sus scrofa, UniProt F1RL75).
T1 construct: PDGF-BB stimulated; immunoprecipitated with PDGF beta-receptor specific antiserum R3
The experiment in a line: PDGF induced PDGFR autophosphorylation in intact SMC cells. The assay is classed as cell-based. The following applies: porcine arterial SMC. The procedure: Effect of tyrphostins on PDGF induced PDGFR autophosphorylation in intact SMC cells: Subconfluent porcine arterial smooth muscle cells, cultivated in Dulbecco's modified Eagle's medium (DMEM) supplemented with 15% fetal calf serum (FCS), were synchronized for 20 hours in a medium containing 2% FCS. […] After stimulation, the cells were solubilized in Nonidet P-40 (1%) containing lysis buffer.
The analysis of PDGF p-receptor phosphorylation was performed as follows. Cell lysates were subjected to immunoprecipitation using the PDGF β-receptor specific antiserum R3 [5]. The percipitates were subjected to polyacrylamide (7.5%) gel electrophoresis in presence of sodium deducyl sulfate (SDS-PAGE) and were thereafter blotted onto a nitrocellulose membrane (Hybond C-EXTRA, Amersham). Phosphorylated proteins were detected by immunoblotting using the horseradish-peroxidase conjugated phosphotyrosine antibody RC20H (Transduction Laboratories), followed by chemoluminescence-based detection (ECL, Amersham) and autoradiography.
Detection of receptor proteins was performed as follows. Cell lysates were subjected to immunoprecipitation using the PDGF β-receptor specific antiserum R3 [5], as described above, and the percipitates washed three times and thereafter subjected to SDS-PAGE (7.5%) and blotting onto a nitrocellulose membrane (Hybond C-EXTRA, Amersham). Receptor proteins were detected by immunoblotting using the horseradish-peroxidase conjugated donkey anti-rabbit antibody (Amersham), followed by chemoluminescence-based detection (ECL, Amersham) and autoradiography.

Another assay has as its system PDGFR. Description: PDGFR autophosphorylation, isolated membranes or intact Swiss 3T3 cells. The assay is classed as biochemical. The conditions noted are these: read-out: IC50 (50% inhibition of phosphorylation) PDGFR. The procedure: Assay of receptor autophosphorylation in intact 3T3 cells: Confluent Swiss 3T3 cells in 24-well plates (Nunc) were incubated for 20-24 hours in serum-free DMEM. Subsequently, tyrphostins were added at concentrations ranging from 0 to 100 μM (final DMSO concentration, 0.5%) and the incubation was continued for 6-8 hours. The cells were then stimulated with 100 ng/ml PDGF-BB for 5 min at room temperature or 600 ng/ml EGF for 2.5 min on ice. The growth factor treatment was terminated by washing twice with ice-cold PBS and the cells were scraped off the wells in 60 μl lysis buffer containing 20 mM Hepes (pH 7.4), 150 mM NaCl, 1% Triton X-100, 10 mM sodium pyrophosphate, 50 mM NaF, 2 mM sodium-o-vanadate, 20 μm zinc acetate, 10 nM EDTA, 2 mM [ethylenebis(oxyethilenenitrilo)] tetraacetic acid, 1 mM phenylmethylsulfonyl fluoride, and 5 μg/ml leupeptin.
The cell lysates were clarified by centrifugation (cooled microfuge, 17,000 rpm, 15 min) and analyzed by SDS-PAGE (6.5% gels) and immunoblotting with anti-phosphotyrosine antibodies (either PY 20, ICN, and subsequently a peroxidase-coupled secondary antibody, or RC20-peroxidase conjugate, Affinity, Nottingham, United Kingdom). The blots were developed with a chemiluminescence detection system (Western Light, Tropix, or ECL, Amersham). In some experiments PDGF receptors were immunoprecipitated with PDGF-R3 or DIG-1 antibodies as described prior to the analysis by immunoblotting with anti-phosphotyrosine antibodies.
Membrane autophosphorylation assays: Membranes were prepared from confluent cultures of Swiss 3T3 cells as described. For measuring receptor autophosphorylation, 10 μg membrane protein per assay were incubated for 20 min on ice in the presence of 1.2 μg/ml EGF or 2 μg/ml PDGF, or both; 50 mM Hepes (pH 7.5); and 3 mm MnCl2 (final concentrations) in a volume of 45 μl. […] For quantification of radioactivity in electrophoresis gels, a Phospho-Imager (Molecular Dynamics, Fuji, or Bio-Rad) was used according to the instructions of the manufacturers. […]

The target of another assay is T2, SRC kinase (Gallus gallus, UniProt P00523, Y527F).
T2 construct: expressed in transfected cells; host or cells: NIH 3T3, stably transfected (gift of S. Courtneidge, Heidelberg)
The experiment in a line: Src kinase activity assay (immunoprecipitate from src-transformed NIH 3T3 cells). The assay is classed as biochemical, chicken. As for the experimental part: Src kinase activity assay: src-transformed NIH 3T3 cells were grown in 24-well plates to confluency; rinsed twice with a solution containing 20 mM Tris, 0.1 mM sodium-o-vanadate, and 150 mM NaCl (pH 7.5); and lysed in 100 μl/well of lysis buffer containing 20 mM Tris (pH 8.0), 150 mM NaCl, 1% Nonidet P-40, 2.5 mM EDTA, 10 mM NaF, 1% trasylol, and 20 μm leupeptin. The lysate was clarified by centrifugation and subjected to immunoprecipitation with the anti-Src monoclonal antibody MAb 327 (Oncogene Science; 0.5 μg antibody/80 μg protein) for 1 hour at 4° C. Then, goat anti-mouse IgG (Sigma; 0.2 μg per 0.5 μg monoclonal antibody 327) was added and incubation was continued for 30 mi followed by another 40 min of incubation with 10 μl of protein A-Sepharose Cl-4B (Pharmacia). The immunoprecipitates were washed five times with the lysis buffer and twice with kinase buffer containing 40 mM Hepes (pH 7.4), 0.5 mM dithiothreitol, 5 mM MnCl2, and 0.1 mM sodium-o-vanadate. The immunoprecipitates were suspended in kinase buffer and aliquots corresponding to 40 μg of cell lysate protein were preincubated with or without tyrphostin for 15 min at 30° C. Then, the kinase reaction was performed in the presence of 2 μg of acid-treated enolase and 10 μCi of [γ-^32 P]ATP (2 μM) in a final volume of 30 μl. The reaction was terminated by addition of SDS-PAGE sample buffer (6% SDS, 30% β-mercaptoetlhanol, 40% glycerol, and 0.5 mg/ml bromophenol blue) and the incorporation of radioactivity in the enolase was analyzed by SDS-PAGE and autoradiography as well as Phosphor-Imager quantification.

Another assay has as its target T3, EGFR (Mus musculus, UniProt Q01279).
T3 construct: Membranes were prepared from confluent cultures of Swiss 3T3 cells; endogenous in cells; host or cells: Swiss 3T3 (obtained from E. Rozengurt, London)
The experiment in a line: EGFR autophosphorylation, isolated membranes or intact Swiss 3T3 cells. The following applies: read-out: IC50 (50% inhibition of phosphorylation) EGFR. The assay is classed as biochemical.

Assay [1] relates to porcine aortic smooth muscle cells (SMC). The experiment in a line: Inhibition of cell proliferation and recovery, porcine SMC. The assay is classed as cell-based. The conditions noted are these: for inhibition at 10 µM: Sus scrofa. As for the experimental part: Smooth muscle cells (SMC) were obtained under aseptic conditions from porcine abdominal aortas, and human internal mammary arteries (IMA). Specimens from the operating room were transferred on ice to the tissue culture room. Each artery was cut open and the endothelial surface mechanically scraped. […] The tissue fragments were then placed in an incubator at 37° C. under 9% CO2 atmosphere until SMC outgrowth was detected (typically within 3-7 days). […] For experiments testing the effect of tyrphostins on growth inhibition and recovery (see below), SMC from passages 1-3 were replated in 15 mm wells pretreated with 3 μg/cm^2 fibronectin (Biological Industries, Kibbutz Beit Haemek, Israel) at 15,000 cells/well.
Inhibition of cell proliferation and recovery: Monolayer cell growth inhibition and recovery experiments were repeated 3 or 4 times. Each experiment was performed in triplicate. […] Cultures were treated with a tyrphostin (10 μM) dissolved in 0.1% DMSO on days 1 and 3. On day 6, cultures were washed and the cells allowed to recover. Typically cells were counted on days 3 and 5 for inhibition, and on days 7, 10 and 15 for recovery, other schedules were also employed as reported below.

T1 sequence (F1RL75 109-1181): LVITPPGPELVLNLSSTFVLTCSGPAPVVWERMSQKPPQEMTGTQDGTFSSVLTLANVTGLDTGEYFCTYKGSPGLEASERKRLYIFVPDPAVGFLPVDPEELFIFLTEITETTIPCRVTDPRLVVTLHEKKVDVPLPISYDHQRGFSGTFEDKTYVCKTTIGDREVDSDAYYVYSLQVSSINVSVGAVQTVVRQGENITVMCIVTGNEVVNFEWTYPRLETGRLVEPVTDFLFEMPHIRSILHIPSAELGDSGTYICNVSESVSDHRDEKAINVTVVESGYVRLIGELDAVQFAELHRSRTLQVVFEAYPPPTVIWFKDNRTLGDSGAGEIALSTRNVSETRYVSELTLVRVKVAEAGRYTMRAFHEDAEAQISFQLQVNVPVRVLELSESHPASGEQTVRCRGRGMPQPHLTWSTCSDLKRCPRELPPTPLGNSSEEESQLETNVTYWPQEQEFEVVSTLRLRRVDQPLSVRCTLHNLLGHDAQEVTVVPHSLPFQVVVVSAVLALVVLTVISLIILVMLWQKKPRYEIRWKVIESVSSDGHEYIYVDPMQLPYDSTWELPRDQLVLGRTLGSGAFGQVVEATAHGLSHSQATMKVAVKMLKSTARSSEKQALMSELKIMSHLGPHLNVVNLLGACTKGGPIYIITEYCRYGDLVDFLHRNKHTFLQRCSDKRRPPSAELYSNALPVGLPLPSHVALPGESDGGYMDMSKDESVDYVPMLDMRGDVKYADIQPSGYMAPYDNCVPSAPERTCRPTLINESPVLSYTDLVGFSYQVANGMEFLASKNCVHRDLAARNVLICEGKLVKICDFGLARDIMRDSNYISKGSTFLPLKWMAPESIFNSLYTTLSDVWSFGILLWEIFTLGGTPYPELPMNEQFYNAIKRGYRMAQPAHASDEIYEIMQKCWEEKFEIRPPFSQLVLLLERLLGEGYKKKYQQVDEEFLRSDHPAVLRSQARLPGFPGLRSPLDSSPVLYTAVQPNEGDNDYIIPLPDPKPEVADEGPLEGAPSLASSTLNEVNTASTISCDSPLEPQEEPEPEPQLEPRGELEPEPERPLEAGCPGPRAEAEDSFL
T3 sequence (Q01279 25-1210): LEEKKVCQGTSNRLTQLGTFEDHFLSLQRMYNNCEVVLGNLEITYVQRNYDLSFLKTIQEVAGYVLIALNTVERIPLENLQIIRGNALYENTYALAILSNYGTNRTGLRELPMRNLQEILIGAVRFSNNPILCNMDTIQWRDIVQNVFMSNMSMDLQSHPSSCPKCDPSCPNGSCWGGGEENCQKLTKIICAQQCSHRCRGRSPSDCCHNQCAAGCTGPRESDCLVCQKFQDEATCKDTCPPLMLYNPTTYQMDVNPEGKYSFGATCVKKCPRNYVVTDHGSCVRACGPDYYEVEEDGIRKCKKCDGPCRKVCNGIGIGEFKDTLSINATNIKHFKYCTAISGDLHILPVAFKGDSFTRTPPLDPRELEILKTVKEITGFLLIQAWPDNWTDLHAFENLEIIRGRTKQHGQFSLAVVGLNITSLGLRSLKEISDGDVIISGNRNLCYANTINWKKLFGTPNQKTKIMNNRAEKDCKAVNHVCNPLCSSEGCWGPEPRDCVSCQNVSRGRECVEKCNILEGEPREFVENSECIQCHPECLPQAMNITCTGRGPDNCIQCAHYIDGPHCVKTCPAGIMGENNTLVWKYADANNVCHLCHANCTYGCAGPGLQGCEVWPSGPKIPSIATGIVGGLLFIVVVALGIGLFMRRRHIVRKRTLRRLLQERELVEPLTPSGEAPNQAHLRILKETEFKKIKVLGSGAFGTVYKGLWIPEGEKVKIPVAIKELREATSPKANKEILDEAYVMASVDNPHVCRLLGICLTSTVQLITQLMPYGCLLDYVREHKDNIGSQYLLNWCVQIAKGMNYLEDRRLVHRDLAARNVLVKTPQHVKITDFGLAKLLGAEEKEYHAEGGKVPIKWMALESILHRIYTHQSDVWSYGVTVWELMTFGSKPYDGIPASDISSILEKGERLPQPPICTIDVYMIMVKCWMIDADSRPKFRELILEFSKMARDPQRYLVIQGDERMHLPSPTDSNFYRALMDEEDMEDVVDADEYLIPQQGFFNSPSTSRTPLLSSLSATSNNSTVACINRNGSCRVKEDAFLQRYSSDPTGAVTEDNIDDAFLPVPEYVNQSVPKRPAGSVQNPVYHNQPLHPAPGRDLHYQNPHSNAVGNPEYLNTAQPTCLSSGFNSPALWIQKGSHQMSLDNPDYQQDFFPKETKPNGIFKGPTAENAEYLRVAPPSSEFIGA
Method for EGFR: Membrane autophosphorylation assays: Membranes were prepared from confluent cultures of Swiss 3T3 cells as described [22]. For measuring receptor autophosphorylation, 10 μg membrane protein per assay were incubated for 20 min on ice in the presence of 1.2 μg/ml EGF or 2 μg/ml PDGF, or both; 50 mM Hepes (pH 7.5); and 3 mm MnCl2 (final concentrations) in a volume of 45 μl. In order to test the effects and determine the IC50 value of various tyrphostins, these were added in a volume of 0.5 μl (in DMSO; final concentration, 0.5%) 15 min before addition of the growth factors, in a range of concentrations. […] For quantification of radioactivity in electrophoresis gels, a Phospho-Imager (Molecular Dynamics, Fuji, or Bio-Rad) was used according to the instructions of the manufacturers. […]

Consider `Cc1cc2ncc(-c3cccs3)nc2cc1C` [AG1990], for which the “level of PDGF β-receptor protein present in the cells” value on PDGF β-receptor is recorded as “without affecting the level”. At PDGF β-receptor (tyrphostin 10 μM, 60 min preincubation, PDGF-BB 100 ng/ml), the “inhibition of PDGF-BB induced PDGF β-receptor tyrosine-phosphorylation” value is reported as “completely inhibited”. Moreover, the pIC50 in the assay with PDGFR is 6.00; against SRC kinase, 4.70; on EGFR, < 4.52. The inhibition at 10 µM in assay [1] (120 h, by day 5 (day given for AG1295 and AG1992), read-out: reduction in SMC count / inhibition of SMC growth over control) worked out at 50%; in assay [1] (Table 2, read-out: mean reduction in SMC count compared to control cells (maximal inhibition in SMC growth)), 50%. In addition, the “reversibility of the inhibitory effect / recovery of SMC growth after washout” value in assay [1] (porcine SMC, cultures washed, cells allowed to recover) was “completely reversible”.
